This series can be described thus: Measurement of photostability of the cinnamate UV-B filter in emulsion formulas on PMMA plates under SUN TEST xenon lamp. The following applies: Formulas 9-11 (1-4% of Example 1) compared with control Formula 8. The format is physicochemical.

The values that follow come from US20080008669A1, “Photostable sunscreen compositions comprising cinnamate ester UV-B filters and s-triazine compounds” (L'OREAL, priority 2006, published 2008).

Take `CCCCOC(=O)c1ccc(Nc2nc(Nc3ccc(C=C(C(=O)OCC(C)(C)C)C(=O)OCC(C)(C)C)cc3)nc(Nc3ccc(C=C(C(=O)OCC(C)(C)C)C(=O)OCC(C)(C)C)cc3)n2)cc1` [Example 1, 2,4-bis-(dineopentyl 4′-aminobenzalmalonate)-6-(butyl 4″-aminobenzoate)-s-triazine]: the “Photostability of the cinnamate ester in the presence of the compound” value is given as “improvement in the photostability of the cinnamate ester is clearly seen”.
